Reference: patent US20030138485A1, “Disintegrant” (DAIICHI PHARMACEUTICAL CO., LTD., priority 1998, published 2003)
In brackets after ≈: the same amount, converted by molar mass.

How the values were obtained:
[1] = Measurement of viscosity of a saturated aqueous solution; format: physicochemical; settings: B-type viscometer
Procedure: (2) Measurement of Viscosity of a Saturated Aqueous Solution
A saturated aqueous solution of a sample was prepared at 37° C., and the resultant solution was filtered by use of a membrane filter. The viscosity of the solution was measured by use of the resultant filtrate at 37° C. by means of a B-type viscometer.

physchem = settings: water
[2] = Increase in weight by moisture absorption; format: physicochemical; settings: for moisture absorption (in words): 25° C., relative humidity 75%, seven days, Table 2; for increase in weight by moisture absorption: sample stored 25° C., 75% open air, 7 days
Procedure: (7) Increase in Weight by Moisture Absorption
A sample tablet was weighed before and after moisture absorption, and the increase in weight of the tablet by moisture absorption (%) was calculated.
In test Example 2, erythritol and trehalose (in the form of hydrous crystals, products of Hayashibara Shoji Inc.) and xylitol and maltose (in the form of anhydrous crystals, products of Nihon Shokuhin Kako Co., Ltd.) were stored for seven days at a temperature of 25° C. and a relative humidity of 75%. Thereafter, each of these was subjected to measurement of increase in weight by moisture absorption (%). In Reference Example 2, the increases in weight by moisture absorption (%) of cornstarch, low substituted hydroxypropylcellulose, carmellose, carmellose calcium, and carmellose sodium were measured in the same manner as in Test Example 2. These compounds had been dried in a drier at 80° C. for one hour, and then employed as samples.

[3] = general description; cited from earlier work

Structure (SMILES)	Viscosity (37° C.) [1]	solubility thermodynamic (physchem) [mg/mL]	moisture absorption (in words) [2]	increase in weight by moisture absorption [2] [%]	heat of dissolution [3] [cal/g]	hygroscopicity (in words) [3]	solubility in water (in words) [3]
OC[C@@H](O)[C@@H](O[C@@H]1O[C@H](CO)[C@H](O)[C@H](O)[C@H]1O)[C@H](O)[C@@H](O)CO [Hydrogenated lactose, reference compound]	218 mPa · s						
OC[C@H]1O[C@@](CO)(O[C@H]2O[C@H](CO)[C@@H](O)[C@H](O)[C@H]2O)[C@@H](O)[C@@H]1O [Sucrose, reference compound]	1120 mPa · s	780 (≈ 2280 mM)					
CC(=O)[O-].[Na+] [Sodium acetate]	5.2 mPa · s						
OC[C@@H](O)[C@@H](O)[C@H](O)[C@@H](O)CO [D-Sorbitol, reference compound]	2090 or more mPa · s						
OC[C@H]1O[C@H](O[C@H]2[C@H](O)[C@@H](O)[C@H](O)O[C@@H]2CO)[C@H](O)[C@@H](O)[C@@H]1O [Maltose]	38 mPa · s		absorb little moisture	0.06			
OC[C@@H](O)[C@H](O)[C@@H](O)CO [Xylitol]	37 mPa · s	740 (≈ 4860 mM)	absorb little moisture	0.05	-35	slightly hygroscopic	very easily dissolved in water
OC[C@@H](O)[C@@H](O)[C@H](O)[C@H](O)CO [D-Mannitol, reference compound]	1.6 mPa · s	240 (≈ 1320 mM)					
OC[C@H]1O[C@@H](O[C@H]2[C@H](O)[C@@H](O)C(O)O[C@@H]2CO)[C@H](O)[C@@H](O)[C@H]1O (some centres unmarked) [Lactose, reference compound]	1.7 mPa · s						
OC[C@@H](O)[C@@H](O)CO [Erythritol]	3.5 mPa · s	450 (≈ 3680 mM)	absorb little moisture	0.03	-42.9	not hygroscopic	easily dissolved in water
OC[C@H]1O[C@H](O[C@H]2O[C@H](CO)[C@@H](O)[C@H](O)[C@H]2O)[C@H](O)[C@@H](O)[C@@H]1O [Trehalose]	11 mPa · s	500 (≈ 1460 mM)	absorb little moisture	0.99		not hygroscopic	easily dissolved in water
CC(=O)[O-].[K+] [Potassium acetate]	30 mPa · s						
